Results as given in patent publication US10952992B2, “Methods of treating intraocular pressure with activators of Tie-2” (Aerpio Pharmaceuticals, Inc., priority 2015, dated 2021).
Where “and” joins values, the source holds several entries; their conditions need not be identical. Identical values can stand only once. Counter-ions that a name gives are not always drawn.

Assay: Example 2 plasma concentrations and pharmacokinetics after topical ocular, subcutaneous, intravitreal administration
Assay type: in vivo, male New Zealand White rabbits
Experimental: To measure the concentration of Compound 1 in plasma and ocular tissues following topical ocular, subcutaneous, and intravitreal administration, New Zealand White rabbits were administered Compound 1, and plasma and ocular samples were collected at pre-determined time points. Compound 1 formulations were prepared fresh on each day of dosing.
Ocular tissue samples from both eyes of each animal were collected and weights were recorded. Plasma and ocular tissue sample concentrations of Compound 1 were determined by LC-MS/MS.
New Zealand White rabbits weighing 2.5 to 3.5 kg were used on this study. Rabbits were housed one per cage. Animals were not fasted and only healthy animals with no ocular illness were used. Two rabbits per group were sacrificed at each of four ocular tissue sampling time points for a total of eight rabbits per group.
Animals were anesthetized for ocular (topical) and intravitreal dosing following the 12IA7 IACUC protocol. Each rabbit received a bolus dose of test formulation either via topical ocular administration 3 times daily on Days 1 and 2 (at 0, 6, and 12 hours), and once on Day 3 (at 0 hours) into both eyes; via intravitreal administration into both eyes once on Day 1 (at 0 hours); or via subcutaneous administration 2 times daily on Days 1 and 2 (at 0 and 8 hours) and once daily on Day 3 (at 0 hours). Doses were given within an approximately 1 hour window each day where applicable.
Each blood sample was collected on Day 3 post dose at pre-determined time points from the rabbits via an ear vessel and placed into chilled polypropylene tubes containing sodium heparin as an anticoagulant. Samples were spun by centrifuge at 4° C. and 3,000× g for 5 minutes. Samples were maintained chilled throughout processing. Each plasma sample was placed on dry ice and stored in a freezer at −60° C. to −80° C. pending bioanalysis.
An LC-MS/MS method was developed for the determination of Compound 1 in rabbit aqueous tissues (plasma, aqueous and vitreous humor) and solid ocular tissue samples. A pre-study standard curve was analyzed to determine the specificity, range, and lower limit of quantitation of the method. Plasma and tissue homogenate study samples were extracted and analyzed. All the samples were treated identically to the standards.
One eight-point standard curve was used in each analytical batch. To be accepted, each batch must have had at least five of eight standards with accuracy within ±20% of nominal, except at the lower limit of quantification (LLOQ), where ±25% was acceptable.
Pharmacokinetic parameters were calculated from the time course of the plasma concentration. The maximum plasma concentration (Cmax) and time to the maximum plasma drug concentration (Tmax) were the observed values for each concentration-time profiles. The area under the plasma drug concentration-time curve (AUClast, with last being from time 0 to the last quantifiable point) was calculated using the trapezoidal formula. The mean residence time MRTlast was calculated as a ratio of AUMClast (area under the first movement curve) to AUClast.

[1] = Group 1: topical ocular 1.2 mg/eye (~0.7 mg/kg/dose), 15% HPβCD + 1% dextrose, 4.0 hr
[2] = Group 2: subcutaneous 5 mg/kg/dose, 15% HPβCD + 1% dextrose solution
[3] = Group 2: subcutaneous 5 mg/kg/dose, 15% HPβCD + 1% dextrose solution, 0.25 hr
[4] = Group 2: subcutaneous 5 mg/kg/dose, 15% HPβCD + 1% dextrose solution, 0.50 hr
[5] = Group 2: subcutaneous 5 mg/kg/dose, 15% HPβCD + 1% dextrose solution, 1.0 hr
[6] = Group 2: subcutaneous 5 mg/kg/dose, 15% HPβCD + 1% dextrose solution, 2.0 hr
[7] = Group 2: subcutaneous 5 mg/kg/dose, 15% HPβCD + 1% dextrose solution, 4.0 hr
[8] = Group 2: subcutaneous solution, normalized by nominal dose 5 mg/kg
[9] = Group 4: intravitreal 2.5 mg/eye (~1.55 mg/kg), 10% HPβCD + 2% dextrose solution
[10] = Group 4: intravitreal 2.5 mg/eye (~1.55 mg/kg), 10% HPβCD + 2% dextrose solution, 1.0 hr
[11] = Group 4: intravitreal 2.5 mg/eye (~1.55 mg/kg), 10% HPβCD + 2% dextrose solution, 3.0 hr
[12] = Group 4: intravitreal 2.5 mg/eye (~1.55 mg/kg), 10% HPβCD + 2% dextrose solution, 6.0 hr
[13] = Group 4: intravitreal 2.5 mg/eye (~1.55 mg/kg), 10% HPβCD + 2% dextrose solution, 24.0 hr
[14] = Group 4: intravitreal 2.5 mg/eye (~1.55 mg/kg), 10% HPβCD + 2% dextrose solution, 48.0 hr
[15] = Group 4: intravitreal 2.5 mg/eye (~1.55 mg/kg), 10% HPβCD + 2% dextrose solution, 72.0 hr
[16] = Group 4: intravitreal solution, normalized by nominal dose 1.55 mg/kg

COC(=O)N[C@@H](Cc1ccccc1)C(=O)N[C@@H](Cc1ccc(NS(=O)(=O)O)cc1)c1csc(-c2cccs2)n1 [Compound 1 sodium salt]
plasma Average conc. [1]: 7.48 ng/mL
plasma Conc., individual rabbit [1]: 13.0 ng/mL and 1.95 ng/mL
plasma AUClast, dose normalized (Group 1: topical ocular, normalized by nominal dose 0.7 mg/kg): 16.8 ± 8.15 kg·ng·h/mL/mg and 16.8 kg·ng·h/mL/mg
plasma AUClast (± SE) [2]: 1555 ± 195 ng·h/mL and 1555 ng·h/mL
plasma AUC∞ [2]: 1560 ng·h/mL
plasma Cmax (± SE) [2]: 1525 ± 115 ng/mL and 1525 ng/mL
plasma MRTlast [2]: 0.87 h
plasma t1/2 [2]: 0.47 h
plasma tmax [2]: 0.25 h
plasma Average conc. [3]: 1525 ng/mL
plasma Conc., individual rabbit [3]: 1640 ng/mL and 1410 ng/mL
plasma Average conc. [4]: 1097 ng/mL
plasma Conc., individual rabbit [4]: 883 ng/mL and 1310 ng/mL
plasma Average conc. [5]: 646 ng/mL
plasma Conc., individual rabbit [5]: 664 ng/mL and 628 ng/mL
plasma Average conc. [6]: 180 ng/mL
plasma Conc., individual rabbit [6]: 55.5 ng/mL and 305 ng/mL
plasma Average conc. [7]: 7.76 ng/mL
plasma Conc., individual rabbit [7]: 7.98 ng/mL and 7.53 ng/mL
plasma AUClast, dose normalized [8]: 311 ± 38.9 kg·ng·h/mL/mg and 311 kg·ng·h/mL/mg
plasma AUC∞, dose normalized [8]: 312 kg·ng·h/mL/mg
plasma AUClast (± SE) [9]: 953 ± 91.1 ng·h/mL and 953 ng·h/mL
plasma AUC∞ [9]: 956 ng·h/mL
plasma Cmax (± SE) [9]: 39.8 ± 2.30 ng/mL and 39.8 ng/mL
plasma MRTlast [9]: 15.1 h
plasma t1/2 [9]: 8.08 h
plasma tmax [9]: 3.00 h
plasma Average conc. [10]: 32.3 ng/mL
plasma Conc., individual rabbit [10]: 33.2 ng/mL and 31.3 ng/mL
plasma Average conc. [11]: 39.8 ng/mL
plasma Conc., individual rabbit [11]: 37.5 ng/mL and 42.1 ng/mL
plasma Average conc. [12]: 36.8 ng/mL
plasma Conc., individual rabbit [12]: 44.3 ng/mL and 29.3 ng/mL
plasma Average conc. [13]: 16.9 ng/mL
plasma Conc., individual rabbit [13]: 19.0 ng/mL and 14.7 ng/mL
plasma Average conc. [14]: 2.58 ng/mL
plasma Conc., individual rabbit [14]: 2.70 ng/mL and 2.45 ng/mL
plasma Average conc. [15]: 0.27 ng/mL
plasma Conc., individual rabbit [15]: 0.215 ng/mL and 0.333 ng/mL
plasma tmax (Group 4: intravitreal 2.5 mg/eye (~1.55 mg/kg), 10% HPβCD + 2% dextrose solution, listed as Compound 1 (sodium salt)): 3 h
plasma AUClast, dose normalized [16]: 615 ± 58.8 kg·ng·h/mL/mg and 615 kg·ng·h/mL/mg
plasma AUC∞, dose normalized [16]: 617 kg·ng·h/mL/mg
mean plasma AUClast between the two dose formulations (intravitreal administration): comparable
mean plasma Cmax, sodium salt solution compared to free acid suspension (intravitreal administration): approximately 2 fold
plasma concentrations vs free acid (FIG. 5) (intravitreal administration, up to twenty-four hours post-administration): slightly higher plasma concentrations as compared to the free acid
mean plasma AUClast, sodium salt solution compared to free acid suspension (subcutaneous administration): approximately 2 fold
mean plasma Cmax, sodium salt solution compared to free acid suspension (subcutaneous administration): approximately 3 fold
mean plasma Tmax (subcutaneous administration, postdose): 0.25 h
plasma concentrations vs free acid (FIG. 4) (subcutaneous administration, up to one hour post-administration): generally increased plasma concentrations as compared to the free acid
plasma concentration (FIG. 3) (topical ocular administration, 4 hour mark): increase in Compound 1 plasma concentration
